Measurements reported in ChEMBL document CHEMBL5154690, “Discovery of a tricyclic farnesoid X receptor agonist HEC96719, a clinical candidate for treatment of non-alcoholic steatohepatitis” (Eur J Med Chem, 2022).
Active and inactive are the calls of the source. No cut-off for these calls is given here.

Assays:
Mus musculus [1] = test: Anti-NASH activity against high fat (HF) diet-induced nonalcoholic steatohepatitis in leptin-deficient ob/ob mouse model assessed as reduction in liver cholesterol level at 3 mg/kg, po administered once daily from week 5 to 10; assay type: functional, organism-based
Mus musculus [2] = test: Anti-NASH activity in western style diet-induced nonalcoholic steatohepatitis model of male C57BL/6 mouse assessed as reduction in liver TG level at 1 mg/kg, po administered once daily from week 32 to 44; assay type: functional, organism-based
Mus musculus [3] = test: Anti-NASH activity in western style diet-induced nonalcoholic steatohepatitis model of male C57BL/6 mouse assessed as reduction in NASH activity score (NAS) at 1 mg/kg, po administered once daily from week 32 to 44; assay type: functional, organism-based
[4] = Clearance in male C57BL/6 mouse at 2 mg/kg, iv measured by LC-MS/MS analysis; assay type: ADME, organism-based; details: in vivo
[5] = Drug recovery in kidney of male Sprague-Dawley rat at 4.5 mg/kg, po administered as C14-lableled compound and assessed as radioactivity and measured at 0.25 hrs; assay type: ADME, organism-based; details: in vivo
[6] = Drug recovery in brain of male Sprague-Dawley rat at 4.5 mg/kg, po administered as C14-lableled compound and assessed as radioactivity and measured at 1 hr; assay type: ADME, organism-based; details: in vivo
[7] = Mutagenecity in Salmonella typhimurium TA97A measured by Ames test; assay type: toxicity; details: salmonella enterica subsp. enterica serovar typhimurium
[8] = Mutagenecity in Salmonella typhimurium TA1535 measured by Ames test; assay type: toxicity; details: salmonella enterica subsp. enterica serovar typhimurium
[9] = Toxicity in po dosed Sprague-Dawley rat assessed as maximum tolerated dose; assay type: organism-based; details: in vivo

For `O=C(O)c1ccc2c(c1)Oc1ccc(OCc3c(-c4c(Cl)cccc4Cl)noc3C3CC3)nc1C1(CC1)C2`, the Activity (Mus musculus [1]) was “Active”, the Activity (Mus musculus [2]) was “Active” and the Activity (Mus musculus [3]) was “Active”. The clearance [4] was 160 mL/min/kg, the Drug recovery [5] was 281 ngequiv/g and the Drug recovery [6] was 38.2 ngequiv/g. For the same compound, the Activity [7] was “Non-Toxic”, the Activity [8] was “Non-Toxic” and the MTD [9] was 2000 mg/kg.
